According to ChEMBL document CHEMBL5625214, “Synthesis of glycyrrhizin analogues as HMGB1 inhibitors and their activity against sepsis in acute kidney injury” (Eur J Med Chem, 2023):
Active and inactive are the calls of the source. The calls are words filed in the database; no cut-off is given here.

Key:
[1] = Cytotoxicity against human HK-2 cells assessed as inhibition of cell viability incubated for 24 hrs by MTT assay; type: toxicity, cell-based
[2] = Cytotoxicity against rat H9c2 cells assessed as inhibition of cell viability incubated for 24 hrs by MTT assay; type: toxicity, cell-based
[3] = Cytotoxicity against human WI-38 cells assessed as inhibition of cell viability incubated for 24 hrs by MTT assay; type: toxicity, cell-based
Huh-7 = assay: Cytotoxicity against human Huh-7 cells assessed as inhibition of cell viability incubated for 24 hrs by MTT assay; type: functional, cell-based; settings: Huh-7, 24 h
A549 = assay: Cytotoxicity against human A549 cells assessed as inhibition of cell viability incubated for 24 hrs by MTT assay; type: functional, cell-based; settings: A549, 24 h
[4] = Cytotoxicity against mouse RAW264.7 cells assessed as cell survival at 60 uM incubated for 24 hrs by MTT assay relative to control; type: toxicity, cell-based; settings: read-out: Activity
RAW264.7 = assay: Inhibition of NO release in mouse RAW264.7 cells incubated for 24 hrs by Griess reagent based assay; type: functional, cell-based; settings: RAW264.7, 24 h
[5] = Cytotoxicity against mouse RAW264.7 cells assessed as cell survival at 30 uM incubated for 24 hrs by MTT assay relative to control; type: toxicity, cell-based; settings: read-out: Activity
Mus musculus [6] = assay: Anti-septic activity in C57BL/6 mouse model assessed as reversal of LPS-induced damage of renal tubules at 15 to 30 mg/kg, ip qd treated for 7 days by H and E staining based analysis; type: functional, organism-based; settings: dose 15-30 mg/kg, time 7.0 day
Mus musculus [7] = assay: Anti-septic activity in C57BL/6 mouse model assessed as reversal of LPS-induced kidney injury at 15 mg/kg, ip qd treated for 7 days by H and E staining based analysis; type: functional, organism-based; settings: time 7.0 day
Mus musculus [8] = assay: Anti-septic activity in C57BL/6 mouse model assessed as reversal of LPS-induced inflammatory cell infiltration in renal interstitium at 15 mg/kg, ip qd treated for 7 days by H and E staining based analysis; type: functional, organism-based; settings: time 7.0 day
Mus musculus [9] = assay: Anti-septic activity in C57BL/6 mouse model assessed as reversal of LPS-induced inflammatory cell infiltration in renal interstitium at 30 mg/kg, ip qd treated for 7 days by H and E staining based analysis; type: functional, organism-based; settings: time 7.0 day
Mus musculus [10] = assay: Anti-septic activity in C57BL/6 mouse model assessed as reversal of LPS-induced kidney injury at 30 mg/kg, ip qd treated for 7 days by H and E staining based analysis; type: functional, organism-based; settings: time 7.0 day
Mus musculus [11] = assay: Anti-septic activity in C57BL/6 mouse model assessed as reversal of LPS-induced disappearance of renal internal brush border structure at 30 mg/kg, ip qd treated for 7 days by H and E staining based analysis; type: functional, organism-based; settings: time 7.0 day
Mus musculus [12] = assay: Anti-septic activity in C57BL/6 mouse model assessed as reversal of LPS-induced accumulation of interstitial vacoules in kidney at 30 mg/kg, ip qd treated for 7 days by H and E staining based analysis; type: functional, organism-based; settings: time 7.0 day

IC50 (RAW264.7) | SMILES | IC50 at 24 h [1] | IC50 at 24 h [2] | IC50 at 24 h [3] | IC50 (Huh-7) | IC50 (A549) | viability at 24 h, 60 µM [4] | viability at 24 h, 30 µM [5] | Activity (Mus musculus [6]) | Activity (Mus musculus [7]) | Activity (Mus musculus [8]) | Activity (Mus musculus [9]) | Activity (Mus musculus [10]) | Activity (Mus musculus [11]) | Activity (Mus musculus [12])
22.8 µM | CC(=O)OC[C@@H]1OC(n2cc(COC(=O)[C@@]3(C)CC[C@]4(C)CC[C@]5(C)C(=CC(=O)[C@@H]6[C@@]7(C)CC[C@H](OC(=O)CCc8ccccc8)C(C)(C)C7CC[C@]65C)[C@H]4C3)nn2)[C@@H](OC(C)=O)[C@H](OC(C)=O)[C@@H]1OC(C)=O (stereo partly specified) | 127 µM | 114 µM | 201 µM | 86.2 µM | 93.4 µM | < 70% |  |  |  |  |  |  |  | 
40.8 µM | CC(=O)OC[C@@H]1OC(n2cc(COC(=O)[C@@]3(C)CC[C@]4(C)CC[C@]5(C)C(=CC(=O)[C@@H]6[C@@]7(C)CC[C@H](OC(=O)CCc8ccccc8)C(C)(C)C7CC[C@]65C)[C@H]4C3)nn2)[C@H](OC(C)=O)[C@H](OC(C)=O)[C@@H]1OC(C)=O (stereo partly specified) | > 800 µM | > 800 µM | 590 µM | 174 µM | 108 µM |  | > 70% |  |  |  |  |  |  | 
 | COC(=O)[C@@]1(C)CC[C@]2(C)CC[C@]3(C)C(=CC(=O)[C@@H]4[C@@]5(C)CC[C@H](OCc6cn(C7O[C@H](COC(C)=O)[C@@H](OC(C)=O)[C@H](OC(C)=O)[C@H]7OC(C)=O)nn6)C(C)(C)C5CC[C@]43C)[C@H]2C1 (stereo partly specified) | 56.1 µM | 87.8 µM | 105 µM | 23.5 µM | 32.7 µM |  |  |  |  |  |  |  |  | 
 | COC(=O)[C@@]1(C)CC[C@]2(C)CC[C@]3(C)C(=CC(=O)[C@@H]4[C@@]5(C)CC[C@H](OCc6cn(C7O[C@H](COC(C)=O)[C@@H](OC(C)=O)[C@H](OC(C)=O)[C@@H]7OC(C)=O)nn6)C(C)(C)C5CC[C@]43C)[C@H]2C1 (stereo partly specified) | 57.2 µM | 65.3 µM | 89.4 µM | 19.7 µM | 23.1 µM |  |  |  |  |  |  |  |  | 
30.7 µM | CC(=O)OC[C@@H]1OC(n2cc(COC(=O)[C@@]3(C)CC[C@]4(C)CC[C@]5(C)C(=CC(=O)[C@@H]6[C@@]7(C)CC[C@H](OC(=O)CCc8ccccc8)C(C)(C)C7CC[C@]65C)[C@H]4C3)nn2)[C@@H](OC(C)=O)[C@H](OC(C)=O)[C@H]1OC(C)=O (stereo partly specified) | 398 µM | 294 µM | > 800 µM | 206 µM | 207 µM |  | > 70% |  |  |  |  |  |  | 
 | COC(=O)[C@@]1(C)CC[C@]2(C)CC[C@]3(C)C(=CC(=O)[C@@H]4[C@@]5(C)CC[C@H](OCc6cn(C7O[C@H](COC(C)=O)[C@H](OC(C)=O)[C@H](OC(C)=O)[C@H]7OC(C)=O)nn6)C(C)(C)C5CC[C@]43C)[C@H]2C1 (stereo partly specified) | 42.2 µM | 92.4 µM | 96.4 µM | 28 µM | 39.4 µM |  |  |  |  |  |  |  |  | 
 | COC(=O)[C@@]1(C)CC[C@]2(C)CC[C@]3(C)C(=CC(=O)[C@@H]4[C@@]5(C)CC[C@H](OCc6cn(C7O[C@H](COC(C)=O)[C@@H](OC(C)=O)[C@H]7OC(C)=O)nn6)C(C)(C)C5CC[C@]43C)[C@H]2C1 (stereo partly specified) | 59.7 µM | 77 µM | 93.9 µM | 30.1 µM | 27.8 µM |  |  |  |  |  |  |  |  | 
30.8 µM | CC(=O)O[C@H]1[C@H](C)OC(n2cc(COC(=O)[C@@]3(C)CC[C@]4(C)CC[C@]5(C)C(=CC(=O)[C@@H]6[C@@]7(C)CC[C@H](OC(=O)CCc8ccccc8)C(C)(C)C7CC[C@]65C)[C@H]4C3)nn2)C[C@@H]1OC(C)=O (stereo partly specified) | > 800 µM | 406 µM | > 800 µM | 112 µM | 100 µM | < 70% | > 70% |  |  |  |  |  |  | 
20.7 µM | CC1(C)[C@@H](O[C@H]2O[C@H](C(=O)O)[C@@H](O)[C@H](O)[C@H]2O[C@@H]2O[C@H](C(=O)O)[C@@H](O)[C@H](O)[C@H]2O)CC[C@]2(C)[C@H]3C(=O)C=C4[C@@H]5C[C@@](C)(C(=O)O)CC[C@]5(C)CC[C@@]4(C)[C@]3(C)CC[C@@H]12 [GLYCYRRHIZIN] | 160 µM | 102 µM | 128 µM | 65.7 µM | 80.3 µM |  | > 70% | Active | inactive | inactive | Active | Active | Active | Active
46.2 µM | CC(=O)OC[C@@H]1OC(n2cc(COC(=O)[C@@]3(C)CC[C@]4(C)CC[C@]5(C)C(=CC(=O)[C@@H]6[C@@]7(C)CC[C@H](OC(=O)CCc8ccccc8)C(C)(C)C7CC[C@]65C)[C@H]4C3)nn2)[C@@H](OC(C)=O)[C@H]1OC(C)=O (stereo partly specified) | 557 µM | 330 µM | 348 µM | 91.3 µM | 92.8 µM | < 70% | > 70% |  |  |  |  |  |  | 
